Results as given in patent US6642257B2, “Agents for treating neuropathic pain” (Mochida Pharmaceutical Co., Ltd., priority 1999, dated 2003).
Counter-ions that a name gives are not always drawn. Like-named read-outs stand apart in the source and are kept apart here. Marks after values point to notes of the source that are not given here.

Tests used:
[1] = system: formalin-induced nociceptive response; test: Formalin-induced nociceptive response in rats; assay type: in vivo, rat; details: for inhibition in vivo at 10 mg/kg: Rattus norvegicus, po, 10 mg/kg orally 30 minutes before formalin
Method: Specifically, 25 μL of 0.5% formalin solution was subcutaneously injected into the left foot pad of the rat, and then each behavior of the rat consisting of the licking or biting of the pad immediately following the injection was checked with a stopwatch for its duration, and its cumulative duration was recorded at five minute intervals. […] The test compound was orally applied to the rat 30 minutes before the subcutaneous injected of formalin. Then, the inhibitory effect of the test compound on the nociceptive response induced by the formalin injection was calculated according to the following formula. To mention, for illustration, the inhibitory effect of carbamazepine, an agent to serve as a comparative example, if it is orally applied at 50 mg/kg, it inhibits the first-phase response by 52%, while it inhibits the second-phase response by 59%. Percent inhibition (%) -[([…]]×100 wherein […] is the response time (sec) of the test group which received formalin and the test compound, while PRcontol is the response time of the control group which received formalin alone.

[2] = target: batrachotoxin receptors in the synaptosome from the rat brain (sodium channel); test: Inhibition of the binding of batrachotoxin to receptors in rat brain synaptosome; details: 1.5 nM tritiated batrachotoxin A20-alfa-benzoate, 100 μM veratridine, 37° C., 30 minutes
[3] = system: transient sodium current in neuroblastoma cells; test: Voltage-clamp, transient sodium current; details: at 53 μM
Method: This experiment was undertaken by the method disclosed by Verdonck et al., Eur. J. Pharmacol., 203:371, 1991. Neuroblastoma cells were used. Isolated cells were strewn over a recording chamber filled with perfusion fluid; the membrane currents are recorded in a whole cell configuration by the voltage-clamp method based on the use of a glass microcapillary. Current components due to ions other than sodium ion were eliminated as follows. The potassium current was removed by cesium ion introduced in the capillary, and the calcium current was removed by cobalt ion added to the perfusion fluid. Measurement of the transient sodium current of the cells was achieved by applying depolarizing pulses at appropriate intervals to the cells clamped at holding potential, and by observing a transient inward current elicited therewith.

[4] = system: Crj:CD(SD) IGS female rats; test: Toxicological study, 14-day oral gavage; details: 5 or 10 mg/kg/day orally once daily for 14 days
[5] = system: response threshold to a mechanical stimulus; test: Rat model made by loosely constricting the sciatic nerve (Bennett), von Frey threshold; assay type: in vivo; details: constriction, 1 hour after dosing
Method: (“Pain,” 33:87, 1988). Specifically, the rat was anesthetized with i.p. injection of pentobarbital sodium at 40 mg/kg; the overlying skin was cut open; and the left biceps femoris muscle was bluntly separated. The sciatic nerve was isolated from surrounding tissues; it was gently constricted at four sites about 1 mm apart from each other by the use of surgical gut sutures (4-0); the operated part was closed; and the rat was returned to its cage for further feeding. For the rat belonging to the sham-surgery group, the same operation was performed except that the sciatic nerve was left untouched. Two weeks after the surgery, the response threshold to a mechanical stimulus consisting of touch with a von Frey filament was determined. The test proceeded as follows: the test compound dissolved or suspended in a solvent (0.5% aqueous solution of hydroxypropylmethyl cellulose) was orally applied to the rat having the sciatic nerve constricted; one hour later, von Frey hairs were applied against the foot pad (spots ranging from heel to the mid-point of foot) one after another in an ascending order of their stiffness; if the rat raises its foot when a certain von Frey hair was applied, the stimulus intensity of that hair was taken as the response threshold (maximum stimulus intensity being 28.84g).

[6] = system: isolated myocardial cells; test: Inhibition of veratrine-induced contracture of isolated myocardial cells; assay type: cell-based; details: Rattus norvegicus; veratrine 100 μg/mL, test compound 30 minutes before
Method: Specifically, the heart removed from the rat according to the Langendorff's method was treated with an enzyme, and isolated myocardial cells were obtained. The myocardial cells were inoculated on a 48 multi-well plate (3548 Coster) previously coated with poly-L-lysine at a rate of 1×10^4 cells/well. The plate was kept at 37° C. for 1 hour while being exposed to a flow of gas comprising 95% O2 and 5% CO2, to allow the cells to adhere to the bottom of each well. Then, the test compound was added to each well, and allowed to be there for 30 minutes, and […] to each well to 100 μg/mL. Five minutes later, the cells of each well was checked for their morphological changes, and the changes were photographed. If the cells' shape changed from a rod-like one into a ball-like one in the presence of veratrine, the cells were regarded as falling to contracture as a result of the exposure to veratrine. The inhibitory effect of the test compound on the contracture was determined by the probit method, and was expressed in terms of IC50. Veratrine is a mixture of […] alkaloids. If veratrine is applied to isolated myocardial cells, the cells which take a rod-like shape in a normal state will fall to contracture, taking a ball-like shape. Veratrine, when applied to isolated myocardial cells, is thought to cause a persistent sodium current in the cells, by suppressing the inactivation of the sodium channel in the cells, which leads to the contracture of the cells (Donck et al., ibid).

[7] = 10 min, first 10 minutes, read-out: Response inhibition, 1st phase
[8] = 0.75 h, 10 to 45 minutes, read-out: Response inhibition, 2nd phase

CC(C)Oc1ccc(N(C)CCC2(O)CCN(CCc3cccc(F)c3)CC2)cc1 [Example 58, 1-[2-(3-fluorophenyl)ethyl]-4-[2-[N-methyl-N-(4-isopropoxyphenyl)amino]ethyl]piperidin-4-ol dihydrochloride] gave an inhibition in vivo at 10 mg/kg [1, 7] of 29% and an inhibition in vivo at 10 mg/kg [1, 8] of 56%.

With CC(C)Oc1ccc(N(C)CCC2(O)CCN(CCc3ccoc3)CC2)cc1.Cl.Cl [Example 84, 1-[2-(3-furyl)ethyl]-4-[2-[N-methyl-N-(4-isopropoxyphenyl)amino]ethyl]piperidin-4-ol dihydrochloride] the inhibition in vivo at 10 mg/kg [1, 7] was 23%, the inhibition in vivo at 10 mg/kg [1, 8] was 49% and the melting point was 202.6 to 203.9 °C.

Cc1cccc(C)c1OCC(C)N (centres unmarked) [mexiletine, reference compound] showed an IC50 [2] of 17000 nM.

CC(C)Oc1ccc(N(C)CCC2(O)CCN(CCc3ccc(C#N)cc3)CC2)cc1.Cl.Cl [Example 51, 1-[2-(4-cyanophenyl)ethyl]-4-[2-[N-methyl-N-(4-isopropoxyphenyl)amino]ethyl]piperidin-4-ol dihydrochloride] showed an inhibition in vivo at 10 mg/kg [1, 7] of 46%, an inhibition in vivo at 10 mg/kg [1, 8] of 67% and an IC50 [2] of 610 nM. The “Decrease of the peak value of the transient inward current” value [3] was 18%, the Body weight [4] was “no loss in the weight” and the General conditions [4] was “no notable abnormalities in general conditions”. For the same molecule, the Histopathological examination [4] was “no abnormal findings were obtained”, the “Survival during treatment period” value [4] was “All the rats survived” and the “Mean threshold, normal foot (right)” value ([5]; 2.5 mg/kg oral) was 16.43 g. For the same molecule, the “Mean threshold, test foot (left)” value ([5]; 2.5 mg/kg oral) was 8.33 g, the “Mean threshold, normal foot (right)” value ([5]; 5 mg/kg oral) was 16.43 g and the “Mean threshold, test foot (left)” value ([5]; 5 mg/kg oral) was 12.63* g. For the same molecule, the “Mean threshold, normal foot (right)” value ([5]; 10 mg/kg oral) was 16.85 g, the “Mean threshold, test foot (left)” value ([5]; 10 mg/kg oral) was 15.58** g and the IC50 [6] was 1560 nM.

Molecule CC(C)Oc1ccc(N(C)CC2(O)CCN(CCc3ccc(C#N)cc3)CC2)cc1.Cl.Cl [Example 96, 1-[2-(4-cyanophenyl)ethyl]-4-[N-methyl-N-(4-isopropoxyphenyl)aminomethyl]piperidin-4-ol dihydrochloride] has an inhibition in vivo at 10 mg/kg [1, 7] of 74%, an inhibition in vivo at 10 mg/kg [1, 8] of 69% and a melting point of 202.8 to 203.4 °C.

For CC(C)Oc1ccc(NCCC2(O)CCN(CCc3ccc(C#N)cc3)CC2)cc1.Cl.Cl, the melting point was 197.3 °C (dec.).

In the case of CCOc1ccc(N(C)CCC2(O)CCN(CCc3ccc(C#N)cc3)CC2)cc1.Cl.Cl [Example 90, 1-[2-(4-cyanophenyl)ethyl]-4-[2-[N-(4-ethoxyphenyl)-N-methylamino]ethyl]piperidin-4-ol dihydrochloride], the inhibition in vivo at 10 mg/kg [1, 7] is reported as 55%, the inhibition in vivo at 10 mg/kg [1, 8] is reported as 65% and the melting point is reported as 214 to 215.2 °C.

With CC(C)Oc1ccc(N(C)CCC2(O)CCN(CCc3ccc(Cl)cc3)CC2)cc1 [Example 60, 1-[2-(4-chlorophenyl)ethyl]-4-[2-[N-methyl-N-(4-isopropoxyphenyl)amino]ethyl]piperidin-4-ol dihydrochloride] the inhibition in vivo at 10 mg/kg [1, 7] was 61% and the inhibition in vivo at 10 mg/kg [1, 8] was 92%.

In the case of NC(=O)N1c2ccccc2C=Cc2ccccc21 [carbamazepine, reference compound], the “Inhibition of the first-phase response” value ([1]; orally applied at 50 mg/kg) is reported as 52%, the “Inhibition of the second-phase response” value ([1]; orally applied at 50 mg/kg) is reported as 59% and the IC50 [2] is reported as ≥ 300000 nM. The “Mean threshold, normal foot (right)” value ([5]; 50 mg/kg oral) was 19.85 g, the “Mean threshold, test foot (left)” value ([5]; 50 mg/kg oral) was 8.97 g and the “Mean threshold, normal foot (right)” value ([5]; 100 mg/kg oral) was 27.13 g. For the same molecule, the “Mean threshold, test foot (left)” value ([5]; 100 mg/kg oral) was 19.43** g.

In the case of CC(C)Oc1ccc(N(C)CCC2(O)CCN(CCc3ccc(F)cc3)CC2)cc1.Cl.Cl [Example 55, 1-[2-(4-fluorophenyl)ethyl]-4-[2-[N-methyl-N-(4-isopropoxyphenyl)amino]ethyl]piperidin-4-ol dihydrochloride], the inhibition in vivo at 10 mg/kg [1, 7] is reported as 30%, the inhibition in vivo at 10 mg/kg [1, 8] is reported as 55% and the IC50 [2] is reported as 280 nM. For the same molecule, the melting point was 252 °C (dec.) and the IC50 [6] was 1340 nM.

Work on CC(C)Oc1ccc(N(C)CCC2(O)CCN(CCc3cccs3)CC2)cc1.Cl.Cl [Example 86, 4-[2-[N-methyl-N-(4-isopropoxyphenyl)amino]ethyl]-1-[2-(2-thienyl)ethyl]piperidin-4-ol dihydrochloride] yielded an inhibition in vivo at 10 mg/kg [1, 7] of 19%, an inhibition in vivo at 10 mg/kg [1, 8] of 62% and a melting point of 203 to 204.5 °C. It also gave an IC50 [6] of 1650 nM.

O=C1NC(=O)C(c2ccccc2)(c2ccccc2)N1 [phenytoin, reference compound] gave an IC50 [2] of 51000 nM.

Work on CC(C)Oc1ccc(N(C)CCC2(O)CCN(CCc3ccc([N+](=O)[O-])cc3)CC2)cc1 [Example 56, 4-[2-[N-methyl-N-(4-isopropoxyphenyl)amino]ethyl]-1-[2-(4-nitrophenyl)ethyl]piperidin-4-ol dihydrochloride] yielded an inhibition in vivo at 10 mg/kg [1, 7] of 40% and an inhibition in vivo at 10 mg/kg [1, 8] of 70%.

For CC(C)Oc1ccc(N(C)CCC2(O)CCN(CCc3ccccc3C(F)(F)F)CC2)cc1 [Example 65, 4-[2-[N-methyl-N-(4-isopropoxyphenyl)amino]ethyl]-1-[2-[2-(trifluoromethyl)phenyl]ethyl]piperidin-4-ol dihydrochloride], the inhibition in vivo at 10 mg/kg [1, 7] was 93% and the inhibition in vivo at 10 mg/kg [1, 8] was 96%.

With CC(C)Oc1ccc(N(C)CCC2(O)CCN(CCc3ccccc3)CC2)cc1.Cl.Cl [Example 50, 4-[2-[N-methyl-N-(4-isopropoxyphenyl)-amino]ethyl]-1-(2-phenylethyl)piperidin-4-ol dihydrochloride] the inhibition in vivo at 10 mg/kg [1, 7] was 44%, the inhibition in vivo at 10 mg/kg [1, 8] was 64% and the IC50 [2] was 300 nM. The melting point was 189.7 to 192.6 °C and the IC50 [6] was 1510 nM.
